# According to US5753221A, “Transformed erythrocytes, process for preparing the same, and their use in pharmaceutical compositions” (priority 1991, dated 1998):
# Read-outs that look alike come from different tables or passages of the source.
# Legend:
# [1] = tested on: human erythrocytes lysates; test: ddCTP stability in human erythrocytes lysates (HPLC); assay type: in vitro ADME; settings: for time stable in erythrocyte lysate: in the presence or absence of ATP
# Method: Human erythrocytes lysates were prepared by adding 2 volumes of 3 mM sodium potassium phosphate buffer, pH 7.4, containing 3 mM mercaptoethanol, 0.5 mM EDTA to each volume of washed and packed erythrocytes. After 30 min at 4° C., the lysates were centrifuged for 1 h at 12,000×g to remove the cell membranes. The supernatants were then dialyzed overnight against 160 volumes of 0.9% (w/v) NaCl containing 10 mM Tris-HCl, pH 7.5, 10 mM MgCl2 and 0.02 mM EDTA. The dialyzed lysates were then used for the studies of ddCTP stability. Briefly, 900 μl of lysate containing ddCTP 50 μM, 100 μM, 300 μM, 1.2 mM or 1.5 mM in a final volume of 1.2 ml were incubated at 37° C. At time intervals of 0, 15, 30 and 60 min, 250 μl of the incubation mixtures were removed and extracted with 125 μl of 10% (v/v) HClO4. The perchloric acid extract was then neutralized with 23 μl of a 3M solution of K2 CO3, diluted with 60 μl of 0.1M sodium potassium phosphate buffer pH 6.5, centrifuged 10 min at 10,000 rpm in an Eppendorf microcentrifuge and 100 μl of extract analyzed by HPLC as described below. […] Integration of peak areas was obtained by means of an HP 3390A electronic integrator (Hewlett-Packard, Avondale, Pa., U.S.A.). A 5 μm Supelcosil LC-18 column (250 mm×4.6 mm I.D., Supelco, Bellefonte, Pa., U.S.A.) protected by a guard column (Pelliguard LC-18, 20 mm×4.6 mm I.D., pellicular packing material, 40 μm particles) was used throughout these studies. […] All buffer solutions, as well as standards and sample solutions, were filtered through a 0.22 μm membrane filter (Millipore).
# The elution conditions used to obtain the chromatograms were: 2 min 100% buffer A, 4 min up to 10% buffer B, 4 min up to 40% buffer B, 3 min up to 100% buffer B and the same conditions are maintained for 7 min. The gradient was then returned to 100% buffer A in 2 min and the initial conditions restored in 8 min. The flow-rate was 1.3 ml/min and the detection wavelength was 272 nm. The analyses were performed at room temperature. Quantitative measurements were carried out by injection of standard solutions of known concentration.
# [2] = tested on: human monocytes/macrophages; test: Delivery of 3H-ddCTP to monocytes/macrophages by phagocytosis; assay type: cell-based; settings: 3H-ddCTP-loaded erythrocytes
# Method: Human monocytes/macrophages were prepared from heparinized blood by Lymphoprep (Nyegaard & Co Oslo, Norway) centrifugation. Mononuclear cells collected at the interface between the Lymphoprep and plasma were washed in 5 mM sodium potassium phosphate buffer, pH 7.4, containing 0.9% (w/v) NaCl, 5 mM glucose and finally resuspended in RPMI 1640 medium containing 10% (v/v) fetal bovine serum (FCS). 8.10^6 cells were placed into 100 mm Corning dish and incubated overnight at 37° C. and 5% CO2. Adherent monocytes/macrophages cells were separated from the lymphocytes by three washing steps in RPMI/FCS medium, counted by Tripan blue exclusion dye and incubated with ddCTP-loaded erythrocytes treated or not with ZnCl2 plus BS^3 or with unloaded erythrocytes overnight at 37° C. at a ratio of 100 erythrocytes per monocytes/macrophages. During the loading procedure ^125 I-ubiquitin (2.1 mCi/mg) was also encapsulated as an internal marker to follow phagocytosis both into ddCTP-loaded on ddCTP-unloaded erythrocytes. (Ubiquitin is a polypeptide of 8 KDa that can be easily encapsulated and is retained by the erythrocytes).
# After monocytes/macrophages-erythrocytes incubation the dishes were extensively washed with RPMI 1640 medium to remove all erythrocytes not phagocytosed, followed by a 0.9% ammonium chloride washing step to remove adherent erythrocytes that were not yet phagocytosed. […]
# [3] = Stability of ddCTP in intact ddCTP-loaded erythrocytes; assay type: in vitro ADME, human; settings: human, erythrocytes; incubation time over 3 h, 37° C; read-out: decay of ddCTP
# Method: (§1) In this case the stability of ddCTP (1 mM) in loaded erythrocytes was evaluated at 37° C. by incubation of ddCTP-loaded erythrocytes at 6% hematocrit in 0.9% (w/v) NaCl containing 10 mM glucose, 5 mM sodium, potassium phosphate buffer, pH 7.4. At different time intervals (0 to 5 h) aliquots (200 μl) of the incubation suspensions were extracted with 100 μl 10% (w/v) HClO4, centrifuged, neutralized and submitted to HPLC analyses as above. In some experiments ^3 H-ddCTP (4 Ci/mmol, Moravek Biochemicals, Inc. Brea Ca) was used.
# (§2) In this case fractions of 0.3 ml were collected at the exit of the wavelength detector of the HPLC system by using an LKB fraction collector and counted in a Packard liquid scintillation Counter. Both methods (HPLC detection and liquid scintillation counting) provided similar results (i.e. ddCTP was stable in erythrocytes until ATP was maintained at physiological concentrations of 1.2 mM, while ddCTP dephosphorylation starts when ATP fall down to values lower than 1 mM.
# [4] = tested on: human erythrocytes; test: as above; assay type: in vitro ADME
# Method: as §1, §2
# [5] = In vivo half life of loaded erythrocytes in mice (125I-ubiquitin radioactivity)
# Method: Similar experiments were also performed on mice erythrocytes to do in vivo studies. The results are similar to those reported above. The in vivo half life of these erythrocytes was evaluated by following the radioactivity of ^125 I-ubiquitin-loaded erythrocytes coencapsulated with ddCTP in erythrocytes treated or not with ZnCl2 and BS^3.
# In this case, the radioactivity associated with the erythrocytes was determined on blood collected from the tail vein of animals receiving the erythrocytes described above.
# [6] = tested on: ddCTP dephosphorylation; test: ATP inhibition of ddCTP dephosphorylation in erythrocyte lysate; assay type: biochemical, human; settings: 2 mM ATP, 100 μM ddCTP, 37° C
# Method: Human erythrocytes lysates were prepared by adding 2 volumes of 3 mM sodium potassium phosphate buffer, pH 7.4, containing 3 mM mercaptoethanol, 0.5 mM EDTA to each volume of washed and packed erythrocytes. After 30 min at 4° C., the lysates were centrifuged for 1 h at 12,000×g to remove the cell membranes. The supernatants were then dialyzed overnight against 160 volumes of 0.9% (w/v) NaCl containing 10 mM Tris-HCl, pH 7.5, 10 mM MgCl2 and 0.02 mM EDTA. The dialyzed lysates were then used for the studies of ddCTP stability. Briefly, 900 μl of lysate containing ddCTP 50 μM, 100 μM, 300 μM, 1.2 mM or 1.5 mM in a final volume of 1.2 ml were incubated at 37° C. At time intervals of 0, 15, 30 and 60 min, 250 μl of the incubation mixtures were removed and extracted with 125 μl of 10% (v/v) HClO4. The perchloric acid extract was then neutralized with 23 μl of a 3M solution of K2 CO3, diluted with 60 μl of 0.1M sodium potassium phosphate buffer pH 6.5, centrifuged 10 min at 10,000 rpm in an Eppendorf microcentrifuge and 100 μl of extract analyzed by HPLC as described below. […] Integration of peak areas was obtained by means of an HP 3390A electronic integrator (Hewlett-Packard, Avondale, Pa., U.S.A.). […]
# [7] = cited from earlier work
# [8] = tested on: human erythrocytes; settings: cited from earlier work
# [9] = target: cytidine deaminase (Homo sapiens, UniProt P32320); settings: cited from earlier work
# Sequence of cytidine deaminase (P32320 whole entry): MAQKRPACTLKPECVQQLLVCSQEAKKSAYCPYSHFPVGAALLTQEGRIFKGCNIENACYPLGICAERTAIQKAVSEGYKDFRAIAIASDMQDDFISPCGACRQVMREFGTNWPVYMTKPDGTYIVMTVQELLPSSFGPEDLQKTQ
# [10] = tested on: HIV; settings: cited from earlier work
smiles,measurement,setting,value
"Nc1ccn([C@H]2CC[C@@H](COP(=O)(O)OP(=O)(O)OP(=O)(O)O)O2)c(=O)n1 [ddCTP, 2',3'-dideoxycytidine-5'-triphosphate]",pH of maximum dephosphorylation rate,[1],8.4
same,Vmax of dephosphorylation of ddCTP to ddCDP,[1]; 37° C,3±0.5 nmol/min/g HB
same,Km,"[1]; 37° C, read-out: Km of dephosphorylation of ddCTP to ddCDP",140 µM
same,dephosphorylation rate relative to maximum rate,[1]; pH 7.2 (physiological value),50%
same,concentration of ddCTP in monocytes/macrophages after phagocytosis,[2],2.88 µM
same,"metabolised at 3 h, 1000 µM",[3],20%
same,ATP concentration below which ddCTP dephosphorylation starts,[4],lower than 1 mM
same,stability of ddCTP in intact cells,"[4]; 37° C, 1 mM ddCTP, 6% hematocrit",stable even at 37 °C
[Cl-].[Cl-].[Zn+2] [ZnCl2],lowest ZnCl2 concentration able to modify red cell survival,[5],0.1 mM
"O=c1[nH]cnc2c1ncn2[C@H]1CC[C@@H](COP(=O)(O)OP(=O)(O)OP(=O)(O)O)O1 [ddITP, 2',3'-dideoxyinosine-5'-triphosphate]",time stable in erythrocyte lysate,[1]; 37° C,at least 2 h
"Nc1nc2c(ncn2[C@H]2CC[C@@H](COP(=O)(O)OP(=O)(O)OP(=O)(O)O)O2)c(=O)[nH]1 [ddGTP, 2',3'-dideoxyguanosine-5'-triphosphate]",time stable in erythrocyte lysate,[1]; 37° C,at least 2 h
Nc1ncnc2c1ncn2[C@@H]1O[C@H](COP(=O)(O)OP(=O)(O)OP(=O)(O)O)[C@@H](O)[C@H]1O [ATP],effect on ddCTP dephosphorylation,[6],completely abolishes
"Cc1cn([C@H]2C[C@H](N=[N+]=[N-])[C@@H](CO)O2)c(=O)[nH]c1=O [AZT, 3'-azido-3'-deoxythymidine]",short plasma half-life (approximate),"[7]; human, in vivo",approximately 1 h
"Nc1ccn([C@H]2CC[C@@H](COP(=O)(O)O)O2)c(=O)n1 [ddCMP, 2',3'-dideoxycytidine-5'-phosphate]",fate of ddCMP encapsulated in human erythrocytes,[8],dephosphorylated by endogenous pyrimidine nucleotidases and subsequently released by the cells as ddCyd
"Nc1ccn([C@H]2CC[C@@H](CO)O2)c(=O)n1 [ddCyd, 2',3'-Dideoxycytidine]",concentration,"[7]; 0.09 mg/Kg, intravenous, 4 h, read-out: plasma level at four hours after intravenous administration",< 100 nM
same,bioavailability,"[7]; human, in vivo",good bioavailability
same,short plasma half-life (approximate),"[7]; human, in vivo",approximately 1 h
same,concentration,"[7]; patients receiving 0.09 mg/Kg, read-out: plasma level during the infusion",> 500 nM
same,resistance to cytidine deaminase,[9],resistant to cytidine deaminase
same,concentration that completely protects target helper/inducer T cells against HIV infections,[10]; in vitro,≥ 0.5 µM
same,concentration that can suppress the virus,[10]; low multiplicity of infection,≥ 10 nM
"Nc1ncnc2c1ncn2[C@H]1CC[C@@H](COP(=O)(O)OP(=O)(O)OP(=O)(O)O)O1 [ddATP, 2',3'-dideoxyadenosine-5'-triphosphate]",time stable in erythrocyte lysate,[1]; 37° C,at least 2 h
